Measured values reported in patent US12358910B2, “Heteroaromatic compounds as Vanin inhibitors” (Boehringer Ingelheim International GmbH, priority 2018, dated 2025).

Experiments:
[1] = target: T1, FLAG-tagged Vanin-1 (AA 22-493, T26I) (Homo sapiens, UniProt O95497, T26I); assay: Vanin-1 enzymatic assay (pantothenic acid formation, RapidFire mass spectrometry); type: biochemical; conditions: 0.1 nM FLAG-tagged Vanin-1, 3 μM D-pantethine, room temperature; geometric mean in case of multiple measurements; read-out: VNN-1 IC50
T1 construct: FLAG-tagged Vanin-1 (AA 22-493, T26I, produced internally); FLAG; made in house
T1 sequence (O95497 22-493 T26I): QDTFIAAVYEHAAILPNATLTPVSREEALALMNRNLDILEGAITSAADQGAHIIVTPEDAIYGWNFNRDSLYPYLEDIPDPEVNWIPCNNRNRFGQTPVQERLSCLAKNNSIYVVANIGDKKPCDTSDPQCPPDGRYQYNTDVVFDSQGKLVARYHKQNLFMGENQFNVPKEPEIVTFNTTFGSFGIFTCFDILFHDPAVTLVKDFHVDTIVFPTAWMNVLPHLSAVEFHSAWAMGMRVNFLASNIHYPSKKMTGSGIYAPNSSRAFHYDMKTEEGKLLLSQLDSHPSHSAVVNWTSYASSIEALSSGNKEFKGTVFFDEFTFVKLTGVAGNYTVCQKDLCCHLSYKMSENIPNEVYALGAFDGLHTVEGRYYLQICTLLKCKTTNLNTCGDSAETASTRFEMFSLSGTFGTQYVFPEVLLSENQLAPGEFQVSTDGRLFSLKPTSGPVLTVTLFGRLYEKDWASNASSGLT
Method: Description of Biological Properties Vanin-1 Enzymatic Assay:
The test compounds are dissolved in 100% DMSO at a concentration of 10 mM and in a first step diluted in DMSO to a concentration of 5 mM, followed by serial dilution steps in 100% DMSO. Dilution factor and number of dilution steps may vary according to needs. Typically 8 different concentrations by 1:5 dilutions are prepared, a further intermediate dilutions of the substances is carried out with assay buffer resulting in 1% final DMSO concentration in the assay.
0.1 nM of FLAG-tagged Vanin-1 (AA 22-493, T26I, produced internally) and test compounds are incubated at room temperature for 20 minutes in assay buffer (1 mM DTT, 0.0025% Brij-35, 50 mM HEPES, pH7.5). D-Pantethine (Sigma, Cat #P2125-5G) in assay buffer is added (final concentration 3 μM) and incubated for additional 30 minutes at room temperature. Total assay volume typically is 40 μl but might be adjusted according to needs. Reaction is stopped by adding equal volume of stop solution as the reaction mixture to reach 100 nM HD-pantothenic acid (as an internal standard) and 1% TFA. Assay plates are centrifuged for 2 minutes and the formation of pantothenic acid is detected by RapidFire Mass Spectrometry (mobile phase A: 0.1% formic acid and 0.01% trifluoroacetic acid in water; mobile phase B: 47.5% acetonitrile, 47.5% methanol, 0.1% formic acid and 0.01% trifluoroacetic acid in water) using a C18, 12 μL cartridge (Agilent Cat #G9205A).
The values given in Table I result from measurements of one or more samples. In case of multiple measurements the geometric mean values are given.

Pantetheinase (vanin) = assay: Human Whole Blood assay (vanin activity by pantothenic acid formation); type: cell-based; conditions: pantethine substrate, 5 min reaction at room temperature, geometric mean in case of multiple measurements, read-out: HWB IC50
Method: Human Whole Blood assay: Pantetheinase (vanin) converts panteheine into pantothenic acid and cysteamine. Accordingly, in the described protocol vanin activity is quantified by formation of pantothenic acid after pantetheine supplementation via pantethine. The assay is applicable to identify vanin inhibitors. Compound stocks are dissolved in DMSO at 10 mM. Further dilutions are performed in RPMI 1640 medium (Gibco, #A-10491-01) and final concentrations in the assay are 0.032 nM-500 nM.
Human blood is drawn into a blood bag (1% heparin, 50 I.E./mL). Blood is aliquoted into cavities of 96-deep-well plates at 290 μL and mixed with 10 μL compound solution or vehicle (30 sec at 1400 rpm on a shaker). Equilibration follows at room temperature, 250 rpm and for 30 min. The assay is started by adding 10 μL of substrate solution (2 μM pantethine in 1 mM DTT, 0.0025% Brij-35, 50 mM HEPES, pH7.5) to each well, except for some blank wells which receive […] substrate buffer (1 mM DTT, 0.0025% Brij-35, 50 mM HEPES, pH7.5) only. Samples are thoroughly shaken (30 sec, 1400 rpm) and reaction is allowed to take place at room temperature, 250 rpm and for 5 min. The reaction is stopped by addition of a vanin tool inhibitor in excess (BI-1 total conc. 10 μM). Centrifugation of the plate follows at 4° C., 665 G for 10 min. Then the blood plasma samples (100 μL) are transferred into another 96-deep-well plate and proteins are precipitated (5 min on ice) by adding 100 μL of ice cold precipitation solution (1 μM labelled pantothenic acid (di-β-alanine-13C6,15N2 calcium salt, Sigma, #705837) in acetonitrile).
Afterwards the plate is centrifuged (4° C., 3220 G, 10 min) and supernatants (50 μL) are collected into another 96-deep-well plate and mixed (10 sec, 1400 rpm) with 150 μL ice cold formic acid (0.1%, Carl Roth GmbH+Co.KG, #CP03.1). The formation of pantothenic acid is detected by RapidFire Mass Spectrometry. A TripleQuad 6500+(ABSciex, Germany) is equipped with an LC-1290 system, a RapidFire autosampler (Agilent, Germany) and a C18 cartridge Type C 12 μL (Agilent Cat #G9526-80000). Mobile phase A is consisting of 0.09% formic acid and 0.01% trifluoroacetic acid in water and mobile phase B of 0.09% formic acid and 0.01% trifluoroacetic acid in acetonitrile/methanol/water=47.5/47.5/5.

SMILES	IC50 [1] [nM]	IC50 (Pantetheinase (vanin)) [nM]
CC(=O)N(C)[C@H]1CCN(C(=O)c2ccc(NCc3cnc4ccccn34)nc2)C1 [Example 5.12]	0.23	3.91
CN(C(=O)C1CC1)[C@H]1CCN(C(=O)c2ccc(NCc3cnc4ccccn34)nc2)C1 [Example 1.16]	0.2	2.78
CN(C(=O)C1CC1)[C@H]1CCN(C(=O)c2ccc(NCc3csc4ccccc34)nc2)C1 [Example 5.39]	0.29	26.2
CC(=O)N(C)[C@H]1CCN(C(=O)c2ccc(NCc3cnc4ccccc4c3)nc2)C1 [Example 5.11]	0.21	–
CC(=O)N(C)[C@H]1CCN(C(=O)c2ccc(NCc3nc4ccccc4s3)nc2)C1 [Example 5.31]	4.62	–
C[C@H](Nc1ccc(C(=O)N2CC[C@H](N(C)C(=O)C3CC(F)(F)C3)C2)cn1)c1cnc2[nH]ccc2c1 [Example 1.10]	0.16	2.78
CC(=O)N(C)[C@H]1CCN(C(=O)c2ccc(N[C@@H](C)c3nc4cc(Cl)c(F)cc4[nH]3)nc2)C1 [Example 5.20]	0.76	–
CC(=O)N(C)[C@H]1CCN(C(=O)c2ccc(NCc3cc(C)cc4[nH]ncc34)nc2)C1 [Example 6.1, N-Methyl-N-[(3S)-1-(6-{[(6-methyl-1H-indazol-4-yl)methyl]amino}pyridine-3-carbonyl)pyrrolidin-3-yl]acetamide]	0.14	–
O=C(c1ccc(NCc2csc3ccccc23)nc1)N1CC[C@H](N2CCCC2=O)C1 [Example 8.2]	0.21	–
O=C(c1ccc(NCc2cnc3ccccn23)nc1)N1CC[C@H](N2CCOC2=O)C1 [Example 1.1, 3-[(3S)-1-{6-[({Imidazo[1,2-a]pyridin-3-yl}methyl)amino]pyridine-3-carbonyl}pyrrolidin-3-yl]-1,3-oxazolidin-2-one]	0.24	3.49
CC(=O)N(C)[C@H]1CCN(C(=O)c2ccc(N[C@H](C)c3cccc4nn(C)cc34)nc2)C1 [Example 5.27]	2.25	–
CC(=O)N(C)[C@H]1CCN(C(=O)c2ccc(NCc3c(C)ccc4nc(C)[nH]c34)nc2)C1 [Example 5.40]	0.54	1.06
CC1(C#N)CCN(C(=O)c2ccc(NCc3ccnc4[nH]ccc34)nc2)C1 (centres unmarked) [Example 1.19]	0.3	3.78
CC(=O)N(C)[C@H]1CCN(C(=O)c2ccc(NCc3csc4ccc(Cl)cc34)nc2)C1 [Example 2.3]	0.21	–
CC(=O)N(C)[C@H]1CCN(C(=O)c2ccc(NCc3cc4ccccc4[nH]3)nc2)C1 [Example 5.33]	9.33	–
CC(=O)N(C)[C@H]1CCN(C(=O)c2ccc(NCc3ccc4ncccc4c3)nc2)C1 [Example 5.26]	1.62	–
CC(=O)N(C)[C@H]1CCN(C(=O)c2ccc(N[C@@H](C)c3ccc4c(cnn4C)c3)nc2)C1 [Example 5.37]	0.24	–
CC(=O)N(C)[C@H]1CCN(C(=O)c2ccc(NCc3cnn4cccnc34)nc2)C1 [Example 5.29]	2.74	–
C[C@H](Nc1ccc(C(=O)N2CC[C@H](N(C)C(=O)C3(C)CCC3)C2)cn1)c1cnc2[nH]ccc2c1 [Example 1.11]	0.2	–
CC(=O)N(C)[C@H]1CCN(C(=O)c2ccc(N[C@@H](C)c3cccc4ccccc34)nc2)C1 [Example 2.2]	0.14	–

SMILES	IC50 [1] [nM]	IC50 (Pantetheinase (vanin)) [nM]
CC1(C#N)CCN(C(=O)c2ccc(NCc3csc4ccccc34)nc2)C1 (centres unmarked) [Example 9.2]	1.14	–
CC(=O)N(C)[C@H]1CCN(C(=O)c2ccc(NCc3cnc4ccsc4c3)nc2)C1 [Example 2.4]	0.29	1.39
CC(=O)N(C)[C@H]1CCN(C(=O)c2ccc(NCc3cccc4c3ccn4C)nc2)C1 [Example 2.5]	0.67	–
CC(=O)N(C)[C@H]1CCN(C(=O)c2ccc(N[C@@H](C)c3nc4cc(Cl)ccc4[nH]3)nc2)C1 [Example 5.15]	0.6	7.52
CN(C(=O)C1(C#N)CC1)[C@H]1CCN(C(=O)c2ccc(NCc3cnc4ccccn34)nc2)C1 [Example 1.13]	0.15	3.03
CC(=O)N(C)[C@H]1CCN(C(=O)c2ccc(NCc3c[nH]c4ccccc34)nc2)C1 [Example 5.16]	0.62	4.39
CC(=O)N(C)[C@H]1CCN(C(=O)c2ccc(NCc3cccc4cccnc34)nc2)C1 [Example 5.30]	3.02	–
CC1(C#N)CCN(C(=O)c2ccc(NCc3cnc4ccccn34)nc2)C1 (centres unmarked) [Example 1.18]	0.41	3.67
CC(=O)N(C)[C@H]1CCN(C(=O)c2ccc(NCc3ccc4[nH]ncc4c3)nc2)C1 [Example 5.22]	0.82	3.35
CC(=O)N(C)[C@H]1CCN(C(=O)c2ccc(N[C@H](C)c3ccc4c(cnn4C)c3)nc2)C1 [Example 5.32]	9.06	–
CC(=O)N(C)[C@H]1CCN(C(=O)c2ccc(NCc3cc(Br)cc4[nH]ncc34)nc2)C1 [Example 5.5]	0.13	–
C[C@H](Nc1ccc(C(=O)N2CC[C@H](N(C)C(=O)C3(C)CCC3)C2)cn1)c1cnc2[nH]ccc2c1 [Example 1.8]	0.14	–
O=C(c1ccc(NCc2csc3ccccc23)nc1)N1CC[C@H](N2CCOC2=O)C1 [Example 8.1, 3-[(3S)-1-(6-{[(1-Benzothiophen-3-yl)methyl]amino}pyridine-3-carbonyl)pyrrolidin-3-yl]-13-oxazolidin-2-one]	0.2	–
CC(=O)N(C)[C@H]1CCN(C(=O)c2ccc(NCc3cc4ccccc4s3)nc2)C1 [Example 2.6]	2.05	–
CC(=O)N(C)[C@H]1CCN(C(=O)c2ccc(NCc3ccc4nc(N)[nH]c4c3)nc2)C1 [Example 5.18]	0.69	–
CC(=O)N(C)[C@H]1CCN(C(=O)c2ccc(N[C@H](C)c3cccc4c3cnn4C)nc2)C1 [Example 5.25]	1.43	–
CC(=O)N(C)[C@H]1CCN(C(=O)c2ccc(NCc3ccc4onc(N)c4c3)nc2)C1 [Example 5.34]	9.43	–
CC(=O)N(C)[C@H]1CCN(C(=O)c2ccc(NCc3ccc4[nH]ccc4c3)nc2)C1 [Example 5.17]	0.64	–
CN(C(=O)C1CCC1)[C@H]1CCN(C(=O)c2ccc(NCc3csc4ccccc34)nc2)C1 [Example 9.1, N-[(3S)-1-(6-{[(1-Benzothiophen-3-yl)methyl]amino}pyridine-3-carbonyl)pyrrolidin-3-yl]-N-methylcyclobutanecarboxamide]	0.26	–
CC(=O)N(C)[C@H]1CCN(C(=O)c2ccc(NCc3n[nH]c4c3CCCC4)nc2)C1 [Example 5.28]	2.65	–
